Our source for the IC50, inhibition and Activity values is ChEMBL document CHEMBL5042533, “Structural Optimization and Structure-Activity Relationship Studies of 6,6-Dimethyl-4-(phenylamino)-6H-pyrimido[5,4-b][1,4]oxazin-7(8H)-one Derivatives as A New Class of Potent Inhibitors of Pan-Trk and Their Drug-Resistant Mutants” (J Med Chem, 2022).

The test system of data set [1] is BaF3. Kind of data set: Cytotoxicity against mouse BaF3 cells expressing LMNA fused TrkA F589L mutant assessed as inhibition of cell growth incubated for 3 days by CCK-8 assay. In kind it is functional, cell-based. Conditions: BaF3, 72 h. For orientation: Formazan colour is commonly taken as a measure of viable cells.
The subject of data set [2] is BaF3. Kind of data set: cells. Conditions: Mus musculus, BaF3, 72 h.
Description: Cytotoxicity against mouse BaF3 cells expressing LMNA fused TrkA G667S mutant assessed as inhibition of cell growth incubated for 3 days by CCK-8 assay
The test system of data set [3] is BaF3. Kind of data set: In vivo inhibition of Trk signalling in NOD-SCID mouse allografted with mouse BaF3 cells expressing TEL fused TrkC G623R mutant assessed as reduction in p-Akt level at 5 to 20 mg/kg, iv qd measured after 10 days by IHC staining based analysis. In kind it is functional, organism-based. Conditions: dose 5-20 mg/kg, time 10.0 day.
Data set [4] is described as follows: Toxicity in NOD-SCID mouse assessed as histological changes in spleen at 5 to 20 mg/kg, iv measured after 10 days by H and E staining based microscopic analysis. Type of data set: organism-based. Conditions: in vivo, 240 h, dose 5-20 mg/kg, time 10 day.
For data set [5], the system named is BaF3. Kind of data set: In vivo inhibition of Trk signalling in NOD-SCID mouse allografted with mouse BaF3 cells expressing TEL fused TrkC G623R mutant assessed as reduction in p-Erk level at 5 to 20 mg/kg, iv qd measured after 10 days by IHC staining based analysis. Type of data set: functional, organism-based. Conditions: dose 5-20 mg/kg, time 10.0 day.
The nature of data set [6]: Toxicity in NOD-SCID mouse assessed as histological changes in lung at 5 to 20 mg/kg, iv measured after 10 days by H and E staining based microscopic analysis. In kind it is organism-based. Conditions: in vivo, 240 h, dose 5-20 mg/kg, time 10 day.
Data set [7] in a line: in vitro. To be noted: mouse, BaF3 cells.
Description: Cytotoxicity against mouse BaF3 assessed as inhibition of cell growth incubated for 3 days by CCK-8 assay
Data set [8] has as its system BaF3. Kind of data set: cells. Conditions: Mus musculus, BaF3, 72 h. The source holds these as a separate data set.
Description: Cytotoxicity against mouse BaF3 cells expressing TEL fused TrkC assessed as inhibition of cell growth incubated for 3 days by CCK-8 assay
The subject of data set [9] is BaF3. The data set is described as follows: cells. To be noted: Mus musculus, BaF3, 72 h. This is another data set of the same source.
Data set [10] in a line: Toxicity in NOD-SCID mouse assessed as histological changes in liver at 5 to 20 mg/kg, iv measured after 10 days by H and E staining based microscopic analysis. In kind it is organism-based. To be noted: in vivo, 240 h, dose 5-20 mg/kg, time 10 day.
Data set [11] is described as follows: cells. To be noted: Homo sapiens, KM12-Luc, 72 h.
Description: Cytotoxicity against human KM12-Luc cells expressing TPM3 fused TrkA assessed as inhibition of cell growth incubated for 3 days by CCK-8 assay
Data set [12] relates to BaF3. The data set is described as follows: Antitumour activity against mouse BaF3 cells expressing TEL fused TrkA allografted in NOD-SCID mouse assessed as reduction in tumor progression at 40 mg/kg/day, po qd measured every 2 or 3 days for 10 days. Type of data set: functional, organism-based. To be noted: time 10.0 day.
A short description of data set [13]: Toxicity in NOD-SCID mouse assessed as histological changes in heart at 5 to 20 mg/kg, iv measured after 10 days by H and E staining based microscopic analysis. Conditions: in vivo, 240 h, dose 5-20 mg/kg, time 10 day. In kind it is organism-based.
Data set [14] has as its system BaF3. The data set is described as follows: cells. To be noted: Mus musculus, BaF3, 72 h. The source holds these as a separate data set.
Data set [15] in a line: Toxicity in NOD-SCID mouse allografted with larotrectinib-resistant mouse BaF3 cells expressing TEL fused TrkC G623R mutant assessed as body weight loss at 40 mg/kg, po qd measured every 2 or 3 days for 10 days. In kind it is organism-based. To be noted: in vivo, 240 h, time 10 day.
For data set [16], the system named is BaF3. Kind of data set: In vivo inhibition of Trk signalling in NOD-SCID mouse allografted with mouse BaF3 cells expressing TEL fused TrkC G623R mutant assessed as reduction in p-Trk level at 5 to 20 mg/kg, iv qd measured after 10 days by IHC staining based analysis. In kind it is functional, organism-based. Conditions: dose 5-20 mg/kg, time 10.0 day.
The subject of data set [17] is BaF3. Kind of data set: cells. Conditions: Mus musculus, BaF3, 72 h. The source holds these as a separate data set.
Description: Cytotoxicity against mouse BaF3 cells expressing TEL fused TrkC G623R assessed as inhibition of cell growth incubated for 3 days by CCK-8 assay
Data set [18] has as its system BaF3. The data set is described as follows: Antitumour activity against larotrectinib-resistant mouse BaF3 cells expressing TEL fused TrkC G623R mutant allografted in NOD-SCID mouse assessed as reduction in tumor growth at 40 mg/kg/day, po qd measured every 2 or 3 days for 10 days. Type of data set: functional, organism-based. To be noted: time 10.0 day.
Data set [19] deals with BaF3. Kind of data set: cells. To be noted: Mus musculus.
Description: Cytotoxicity against mouse BaF3 cells harboring TEL fused TrkC G613R mutant assessed as inhibition of cell growth by MTT assay
For data set [20], the system named is BaF3. The data set is described as follows: cells. To be noted: Mus musculus, BaF3, 72 h. This is another data set of the same source.
Description: Cytotoxicity against mouse BaF3 cells expressing TEL fused TrkC G696C assessed as inhibition of cell growth incubated for 3 days by CCK-8 assay
For data set [21], the system named is BaF3. The data set is described as follows: cells. Conditions: Mus musculus, BaF3, 72 h. The source holds these as a separate data set.
Description: Cytotoxicity against mouse BaF3 cells expressing CD74 fused TrkA assessed as inhibition of cell growth incubated for 3 days by CCK-8 assay
For data set [22], the system named is BaF3. Kind of data set: cells. To be noted: Mus musculus, BaF3, 72 h. This is another data set of the same source.
Description: Cytotoxicity against mouse BaF3 cells expressing TEL fused TrkA assessed as inhibition of cell growth incubated for 3 days by CCK-8 assay
Data set [23] in a line: Toxicity in NOD-SCID mouse assessed as histological changes in kidney at 5 to 20 mg/kg, iv measured after 10 days by H and E staining based microscopic analysis. Type of data set: organism-based. To be noted: in vivo, 240 h, dose 5-20 mg/kg, time 10 day.
Data set [24] can be described thus: Toxicity in NOD-SCID mouse allografted with mouse BaF3 cells expressing TEL fused TrkA assessed as body weight loss at 40 mg/kg, po qd measured every 2 or 3 days for 10 days. To be noted: in vivo, 240 h, time 10 day. In kind it is organism-based.
Data set [25] deals with High affinity nerve growth factor receptor (Homo sapiens, UniProt P04629). Kind of data set: Inhibition of wild type TrkA (unknown origin) using poly(Glu: Tyr) as substrate preincubated for 15 mins followed by substrate addition and further incubated for 30 mins in presence of [gamma-33P]ATP by scintillation counting method.
Data set [26] addresses BDNF/NT-3 growth factors receptor (Homo sapiens, UniProt Q16620). The data set is described as follows: Inhibition of wild type TrkB (unknown origin) using poly(Glu: Tyr) as substrate preincubated for 15 mins followed by substrate addition and further incubated for 30 mins in presence of [gamma-33P]ATP by scintillation counting method.

Usually IC50 stands for the midpoint of a concentration-inhibition curve.

Active and inactive are the calls of the source. The rule behind the calls is not given here. Where only a bound is given, the exact number is not on record here.

Sequence of BDNF/NT-3 growth factors receptor (Q16620 whole entry): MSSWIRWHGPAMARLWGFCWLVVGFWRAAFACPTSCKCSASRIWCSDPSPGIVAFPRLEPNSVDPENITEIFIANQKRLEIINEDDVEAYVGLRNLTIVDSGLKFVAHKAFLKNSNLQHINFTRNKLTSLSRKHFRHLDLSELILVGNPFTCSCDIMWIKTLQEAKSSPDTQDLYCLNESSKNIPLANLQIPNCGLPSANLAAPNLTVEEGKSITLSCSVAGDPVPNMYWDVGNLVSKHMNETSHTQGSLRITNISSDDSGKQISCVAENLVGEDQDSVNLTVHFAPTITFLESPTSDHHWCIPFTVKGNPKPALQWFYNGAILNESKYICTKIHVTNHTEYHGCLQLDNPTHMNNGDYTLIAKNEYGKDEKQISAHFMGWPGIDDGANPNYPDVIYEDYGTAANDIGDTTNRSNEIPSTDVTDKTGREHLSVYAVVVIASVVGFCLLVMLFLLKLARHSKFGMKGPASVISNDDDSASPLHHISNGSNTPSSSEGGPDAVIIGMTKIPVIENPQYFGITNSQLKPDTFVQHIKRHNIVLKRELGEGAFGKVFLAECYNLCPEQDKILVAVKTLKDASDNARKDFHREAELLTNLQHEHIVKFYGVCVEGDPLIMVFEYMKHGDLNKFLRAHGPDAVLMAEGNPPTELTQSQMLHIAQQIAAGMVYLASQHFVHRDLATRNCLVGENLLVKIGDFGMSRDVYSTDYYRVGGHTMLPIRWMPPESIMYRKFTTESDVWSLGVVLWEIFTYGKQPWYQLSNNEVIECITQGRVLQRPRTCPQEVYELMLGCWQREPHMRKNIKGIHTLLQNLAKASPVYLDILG
Sequence of High affinity nerve growth factor receptor (P04629 whole entry): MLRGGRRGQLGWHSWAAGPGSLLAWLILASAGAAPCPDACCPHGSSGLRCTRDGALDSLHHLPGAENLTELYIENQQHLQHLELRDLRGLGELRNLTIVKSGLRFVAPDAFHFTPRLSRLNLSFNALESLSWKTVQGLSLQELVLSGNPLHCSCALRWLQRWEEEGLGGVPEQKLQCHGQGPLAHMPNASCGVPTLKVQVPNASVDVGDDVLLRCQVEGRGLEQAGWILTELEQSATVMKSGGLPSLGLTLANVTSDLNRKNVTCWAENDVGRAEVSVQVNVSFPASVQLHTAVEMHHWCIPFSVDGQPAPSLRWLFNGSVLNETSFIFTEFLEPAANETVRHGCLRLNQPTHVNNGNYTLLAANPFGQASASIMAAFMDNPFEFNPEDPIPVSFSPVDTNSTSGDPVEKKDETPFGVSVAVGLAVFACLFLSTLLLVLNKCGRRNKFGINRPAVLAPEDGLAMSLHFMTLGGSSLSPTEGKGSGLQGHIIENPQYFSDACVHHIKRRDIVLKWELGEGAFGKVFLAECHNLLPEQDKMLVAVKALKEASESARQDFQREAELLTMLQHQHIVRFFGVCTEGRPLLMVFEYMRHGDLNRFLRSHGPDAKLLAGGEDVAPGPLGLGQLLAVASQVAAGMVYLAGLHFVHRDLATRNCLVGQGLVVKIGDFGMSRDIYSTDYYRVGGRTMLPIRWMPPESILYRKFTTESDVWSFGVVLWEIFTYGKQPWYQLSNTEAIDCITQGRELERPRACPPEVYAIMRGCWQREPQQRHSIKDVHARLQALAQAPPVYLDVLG

As to `C[C@@H]1CCc2ncc(F)cc2[C@H]2CCCN2c2ccn3ncc(c3n2)C(=O)N1` [SELITRECTINIB], the IC50 in [1] is 17 nM; in [2], 30 nM; in data set [8], 4 nM; in data set [9], 109 nM; in data set [11], 5 nM; in data set [14], 15 nM. Also, the IC50 in data set [17] came out at 18 nM; in data set [19] it was 18 nM; in data set [20] it was 50 nM; in data set [21], 1 nM; in [22], 9 nM. Further, the inhibition entry in data set [3], in [5] and in [16] was “Active” in each case. Moreover, the Activity entry in data set [4], in data set [6], in data set [10], in data set [13], in [15] and in data set [23] was “Non-Toxic” throughout. For the same compound, the Activity entry in [24] is reported as “Non-Toxic”. In addition, in [7], the IC50 at 3 days is over 10000 nM. Moreover, the outcome in data set [12] and in data set [18] was Active.

Turning to `Cc1cc(NC(=O)Nc2cc(C(C)(C)C)nn2-c2ccc(F)c(F)c2)ccc1Nc1ncnc2c1OC(C)(C)C(=O)N2`, the IC50 in data set [1] is 10 nM; in data set [2], 14 nM; in data set [8], 25 nM; in data set [9], 1 nM; in [11] it was 8 nM; in data set [14] it was 82 nM. For the same compound, the IC50 in [25] came out at 9 nM; in data set [26] it was 19 nM; in data set [17], 34 nM; in data set [19] it was 34 nM; in data set [20], 2 nM; in [21], 5 nM. This compound also displayed an IC50 in data set [22] of 2 nM. This compound also came in with an IC50 at 3 days in data set [7] of over 10000 nM.
